The source of these data is PMC7998731, “Pharmacokinetic Characterization of Supinoxin and Its Physiologically Based Pharmacokinetic Modeling in Rats” (Pharmaceutics, 2021).

The test system of data set [1] is advanced triple-negative breast cancer. Details: method as in doi:10.1200/JCO.2018.36.15_suppl.1097. As to conditions: cited from earlier work.
Data set [2] is described as follows: Metabolic stability in rat liver microsomes. It counts as in vitro ADME. Here is the method:
In these experiments, the metabolic stability of supinoxin in rat liver microsomes (BD Biosciences, San Jose, CA, USA) was determined. The microsomal reaction mixture comprised the follows: liver microsomal protein (final concentration of 0.5 mg protein per mL reaction mixture) and an NADPH regenerating solution (1.3 mM NADP+, 3.3 mM glucose-6-phosphate, 0.4 U/mL glucose-6-phosphate dehydrogenase, and 3.3 mM MgCl2) in a 100 mM potassium phosphate buffer with a pH of 7.4. After 5 min preincubation of the reaction mixture in a water bath at 37 °C, the reaction was initiated by the addition of a supinoxin solution to obtain a final concentration of 1 µM. Aliquots (50 µL) of the mixture were sampled at 5, 15, 30, and 60 min after the initiation of the reaction. The reaction was terminated by adding a stop solution (200 µL of ice-chilled acetonitrile) to the sample immediately after collection. After mixing by vortexing and centrifugation of the mixtures at 15,000× g for 5 min, an aliquot (150 µL) of the supernatant was analyzed by LC–MS/MS assay. In addition, the metabolic stability of supinoxin was determined in the presence of UDP glucuronic acid under similar reaction conditions, except that uridine 5′-diphosphoglucuronic acid was added instead of the NADPH regenerating solution. Finally, metabolic stability of supinoxin was tested in concentration range of 0.1–10 μM to confirm that the concentration used in the study (1 μM) was below the Km for the metabolic reaction. The amount of sample remaining was plotted against the reaction time to determine the metabolic rate constant of the reaction. Assuming that the substrate concentration was below the Km for the metabolic reaction, the intrinsic clearance was calculated as follows:(6) CLint= Aprotein×ke/fu,mic·Cprotein where Aprotein is the total amount of liver microsomal protein, ke is the metabolic rate constant of the reaction, fu,mic is the unbound fraction of the drug in the reaction mixture, and Cprotein is the microsomal protein concentration (mg/mL) in the reaction mixture. In this calculation, an Aprotein of 1790 mg of protein per kg for rats was used.
When necessary, the hepatic clearance of the compound was calculated using a well-stirred model as follows: (7) CLh= Q·CLint·fu,p/Q+CLint·fu,p/R where Q is the hepatic blood flow, fu,p is the unbound fraction of the drug in the plasma, and R is the blood-to-plasma partition ratio. In this calculation, a hepatic blood flow of 14.5 mL/min for 250 g rat was used, and the blood-to-plasma partition ratio was assumed to be 1.
For orientation: Microsomes from liver hold many membrane-bound enzymes, among them those of drug oxidation.

`COc1cc(OC)cc(N2CCN(C(=O)Nc3nc4cc(F)ccc4nc3OC)CC2)c1` [supinoxin, 1-(3,5-Dimethoxyphenyl)-4-[(6-Fluoro-2-Methoxyquinoxalin-3-yl) Aminocarbonyl] Piperazine]: in data set [1] (after two cycles of therapy), the “patients with stable disease” value is “five of the 11 patients”. Further, in data set [1], the “safety and tolerability of the suggested dose” value is “safe and well tolerated”. Besides, the tumor reduction in data set [1] (one subject, after two cycles of therapy) is recorded as 18.2%. Further, the half-life at 1 µM in data set [2] (pH 7.4, rat liver microsomes, NADPH, 1 µM, read-out: NADPH-dependent metabolic half-life) was 17.1 min. Also, the CLint scaled at 1 µM in data set [2] (pH 7.4, rat liver microsomes, NADPH, 1 µM, read-out: intrinsic clearance (converted)) was 233 mL/min/kg. Also, in data set [2] (rat liver microsomes, NADPH, 1 µM), the “remaining amount at the end of the 60-min incubation” value is listed as 12.7 ± 0.1 % of the initial. Further, in data set [2] (rat liver microsomes, UDPGA, 1 µM, 60 min), the “remaining amount in UDPGA-dependent metabolic stability study” value is on record as 92.2 ± 0.1%. The half-life versus concentration result in data set [2] (rat liver microsomes, concentration ranges of 0.1–1 μM) was “remained constant”. Besides, the “hepatic clearance as share of the total in vivo clearance” value in data set [2] (vs average clearance of 0.5–5 mg/kg intravenous administration) was determined as 58.5%. This molecule displayed a hepatic clearance in data set [2] (well-stirred model, from rat liver microsomal incubation) of 7.38 mL/min/kg.

In general, half-life refers to how long it takes for the measured level to halve.
